Drawing on patent US7875647B2, “Heteroaryl-pyrazole derivatives as cannabinoid CB1 receptor antagonists” (Green Cross Corporation, priority 2006, dated 2011), this text covers IC50 for 30 compounds.

Structures are written as SMILES.

The target in the first experiment is T1, Cannabinoid-1 receptor (CB1R) (Rattus norvegicus, UniProt P20272).
T1 construct: The tissue obtained from the brain of SD rats was homogenized; from tissue; host or cells: brain of SD rats (membrane pellet of the homogenate)
T1 sequence (P20272 whole entry): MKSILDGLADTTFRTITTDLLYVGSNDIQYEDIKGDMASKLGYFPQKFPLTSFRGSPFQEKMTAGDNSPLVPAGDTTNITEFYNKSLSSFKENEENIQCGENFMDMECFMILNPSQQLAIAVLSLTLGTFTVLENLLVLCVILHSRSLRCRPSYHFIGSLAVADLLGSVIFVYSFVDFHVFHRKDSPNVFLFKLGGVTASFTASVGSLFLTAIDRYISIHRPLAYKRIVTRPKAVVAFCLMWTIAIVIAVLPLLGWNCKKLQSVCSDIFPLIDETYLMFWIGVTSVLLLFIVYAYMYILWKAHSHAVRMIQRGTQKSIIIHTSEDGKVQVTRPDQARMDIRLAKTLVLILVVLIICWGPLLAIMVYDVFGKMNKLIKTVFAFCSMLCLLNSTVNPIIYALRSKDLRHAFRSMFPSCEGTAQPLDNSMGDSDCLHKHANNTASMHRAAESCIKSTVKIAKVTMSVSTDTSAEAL
The experiment is described as follows: Cannabinoid-1 receptor (CB1R) binding affinity assay ([3H]CP-55940, rat CB-1 receptor binding protocol). As to conditions: IC50(nM), brain tissue of SD rats, [3H]CP-55940, 30° C. 60 min.
Broadly, the IC50 is the concentration needed to halve the response being measured. `CCc1c(-c2nnc(C3(CC)CC3)o2)nn(-c2ccc(Cl)cc2Cl)c1-c1ccc(Br)cc1` [Example 279, 2-(5-(4-bromophenyl)-1-(2,4-dichlorophenyl)-4-ethyl-1H-pyrazol-3-yl)-5-(1-ethylcyclopropyl)-1,3,4-oxadiazole] gave a half-maximal inhibitory concentration (IC50) of 12.8 nM.

Regarding `CCCCCOC(C)(C)c1nnc(-c2nn(-c3ccc(Cl)cc3Cl)c(-c3ccc(Cl)cc3)c2C)o1` [Example 244, 2-(5-(4-chlorophenyl)-1-(2,4-dichlorophenyl)-4-methyl-1H-pyrazol-3-yl)-5-(2-(pentyloxy)propan-2-yl)-1,3,4-oxadiazole], the IC50 was determined as 15.1 nM.

Consider `CCc1c(-c2nnc(C3(c4ccccc4)CC3)o2)nn(-c2ccc(Cl)cc2Cl)c1-c1ccc(Br)cc1` [Example 177, 2-(5-(4-bromophenyl)-1-(2,4-dichlorophenyl)-4-ethyl-1H-pyrazol-3-yl)-5-(1-phenylcyclopropyl)-1,3,4-oxadiazole], for which the IC50 worked out at 3.01 nM.

Staying with this experiment, now noted: brain tissue of SD rats, [3H]CP-55940, 30° C. 60 min; read-out: IC50.
Turning to `CCc1cnc(-c2nn(-c3ccc(Cl)cc3Cl)c(-c3ccc(Cl)cc3)c2C)o1` [Example 640, 2-(5-(4-chlorophenyl)-1-(2,4-dichlorophenyl)-4-methyl-1H-pyrazol-3-yl)-5-ethyloxazole], the IC50 came out at 51.4 nM. For the compound `CCCCOC(C)(C)c1nnc(-c2nn(-c3ccc(Cl)cc3Cl)c(-c3ccc(Cl)cc3)c2C)s1` [Example 457, 2-(2-butoxypropan-2-yl)-5-(5-(4-chlorophenyl)-1-(2,4-dichlorophenyl)-4-methyl-1H-pyrazol-3-yl)-1,3,4-thiadiazole], the IC50 stood at 16.9 nM.

Take `C=CCOC(C)(C)c1nnc(-c2nn(-c3ccc(Cl)cc3Cl)c(-c3ccc(Br)cc3)c2CC)o1` [Example 238, 2-(2-(allyloxy)propan-2-yl)-5-(5-(4-bromophenyl)-1-(2,4-dichlorophenyl)-4-ethyl-1H-pyrazol-3-yl)-1,3,4-oxadiazole]: the 50% inhibitory concentration (IC50) stood at 18.4 nM. `CC(C)(C)c1nnc(-c2nn(-c3ccc(Cl)cc3Cl)c(-c3ccc(Cl)cc3)c2COc2ccccn2)o1` [Example 234, 2-tert-butyl-5-(5-(4-chlorophenyl)-1-(2,4-dichlorophenyl)-4-((pyridin-2-yloxy)methyl)-1H-pyrazol-3-yl)-1,3,4-oxadiazole]: the IC50 was found to be 24.4 nM. As for `Cc1c(-c2nnc(C3(c4ccc(Cl)cc4)CCC3)o2)nn(-c2cccc(Cl)c2Cl)c1-c1ccc(Cl)cc1` [Example 137, 2-(5-(4-chlorophenyl)-1-(2,3-dichlorophenyl)-4-methyl-1H-pyrazol-3-yl)-5-(1-(4-chlorophenyl)cyclobutyl)-1,3,4-oxadiazole], the IC50 was 141 nM. Still for that read-out and setting: under `Cc1c(-c2nnc(C(C)C3CCCCC3)s2)nn(-c2ccc(Cl)cc2Cl)c1-c1ccc(Cl)cc1` (stereo not drawn) [Example 392, 2-(5-(4-chlorophenyl)-1-(2,4-dichlorophenyl)-4-methyl-1H-pyrazol-3-yl)-5-(1-cyclohexylethyl)-1,3,4-thiadiazole] stands 46.7 nM. On to `CCC(C)c1nnc(-c2nn(-c3ccc(Cl)cc3Cl)c(-c3ccc(Cl)cc3)c2Cl)s1` (stereo not drawn) [Example 539, 2-sec-butyl-5-(4-chloro-5-(4-chlorophenyl)-1-(2,4-dichlorophenyl)-1H-pyrazol-3-yl)-1,3,4-thiadiazole], for which the IC50 is 102 nM. Same read-out and setting: the figure for `Cc1c(-c2nnc([C@H]3C[C@H]3C(=O)N3CCCCC3)o2)nn(-c2ccc(Cl)cc2Cl)c1-c1ccc(Cl)cc1` [Example 242, ((1R,2S)-2-(5-(5-(4-chlorophenyl)-1-(2,4-dichlorophenyl)-4-methyl-1H-pyrazol-3-yl)-1,3,4-oxadiazol-2-yl)cyclopropyl)(piperidin-1-yl)methanone] is 67.3 nM. Take `Cc1c(-c2nnn(C3CCCCC3)n2)nn(-c2ccc(Cl)cc2Cl)c1-c1ccc(Cl)cc1` [Example 580, 5-(5-(4-Chlorophenyl)-1-(2,4-dichlorophenyl)-4-methyl-1H-pyrazol-3-yl)-2-cyclohexyl-2H-tetrazole]: the IC50 amounted to 75.8 nM. For the compound `O=Cc1c(-c2nnc(C3(c4ccc(Cl)cc4)CC3)o2)nn(-c2ccc(Cl)cc2Cl)c1-c1ccc(Cl)cc1` [Example 204, 5-(4-chlorophenyl)-3-(5-(1-(4-chlorophenyl)cyclopropyl)-1,3,4-oxadiazol-2-yl)-1-(2,4-dichlorophenyl)-1H-pyrazole-4-carbaldehyde], the IC50 came out at 5.39 nM. Turning to `Cc1c(-c2n[nH]c(C3CCCCC3)n2)nn(-c2ccc(Cl)cc2Cl)c1-c1ccc(Cl)cc1` [Example 612, 3-(5-(4-Chlorophenyl)-1-(2,4-dichlorophenyl)-4-methyl-1H-pyrazol-3-yl)-5-cyclohexyl-1H-1,2,4-triazole], the IC50 stood at 227 nM. Regarding `FC(F)c1c(-c2nnc(C3(c4ccc(Cl)cc4)CC3)o2)nn(-c2ccc(Cl)cc2Cl)c1-c1ccc(Cl)cc1` [Example 225, 2-(5-(4-chlorophenyl)-1-(2,4-dichlorophenyl)-4-(difluoromethyl)-1H-pyrazol-3-yl)-5-(1-(4-chlorophenyl)cyclopropyl)-1,3,4-oxadiazole], the IC50 was 12.1 nM.

For the compound `CC(=O)Oc1c(-c2nnc(C(C)(C)C)o2)nn(-c2ccc(Cl)cc2Cl)c1-c1ccc(Cl)cc1` [Example 216, 3-(5-tert-butyl-1,3,4-oxadiazol-2-yl)-5-(4-chlorophenyl)-1-(2,4-dichlorophenyl)-1H-pyrazol-4-yl acetate], the IC50 was found to be 57.3 nM.

In the case of `COc1ccc(-c2c(C)c(-c3nnc(C4(c5ccc(OC)cc5)CC4)o3)nn2-c2ccc(Cl)cc2Cl)cc1` [Example 172, 2-(1-(2,4-dichlorophenyl)-5-(4-methoxyphenyl)-4-methyl-1H-pyrazol-3-yl)-5-(1-(4-methoxyphenyl)cyclopropyl)-1,3,4-oxadiazole], the IC50 was found to be 17.9 nM.

On to `CCC(C)c1nc(-c2nn(-c3ccc(Cl)cc3Cl)c(-c3ccc(Cl)cc3)c2C)nn1CC` (stereo not drawn) [Example 632, 5-sec-butyl-3-(5-(4-chlorophenyl)-1-(2,4-dichlorophenyl)-4-methyl-1H-pyrazol-3-yl)-1-ethyl-1H-1,2,4-triazole], for which the concentration for half-maximal inhibition (IC50) turned out to be 834 nM.

In the case of `CCCC(C)c1nnc(-c2nn(-c3ccc(Cl)cc3Cl)c(-c3ccc(Br)cc3)c2CC)s1` (stereo not drawn) [Example 414, 2-(5-(4-bromophenyl)-1-(2,4-dichlorophenyl)-4-ethyl-1H-pyrazol-3-yl)-5-(pentan-2-yl)-1,3,4-thiadiazole], the IC50 was found to be 9.18 nM.

`CCCC(C)c1nnc(-c2nn(-c3ccc(Cl)cc3Cl)c(-c3ccc(Cl)cc3)c2C)s1` (stereo not drawn) [Example 368, 2-(5-(4-Chlorophenyl)-1-(2,4-dichlorophenyl)-4-methyl-1H-pyrazol-3-yl)-5-(pentan-2-yl)-1,3,4-thiadiazole]: the IC50 worked out at 13.4 nM.

`CCc1c(-c2nnc(C3(c4ccc(Cl)cc4)CC3)o2)nn(-c2ccc(Cl)cc2Cl)c1-c1ccc(Cl)cc1` [Example 133, 2-(5-(4-chlorophenyl)-1-(2,4-dichlorophenyl)-4-ethyl-1H-pyrazol-3-yl)-5-(1-(4-chlorophenyl)cyclopropyl)-1,3,4-oxadiazole]: the IC50 was found to be 5.47 nM. For `CC(=O)OCc1c(-c2nnc(C(C)(C)C)o2)nn(-c2ccc(Cl)cc2Cl)c1-c1ccc(Cl)cc1` [Example 196, (3-(5-tert-butyl-1,3,4-oxadiazol-2-yl)-5-(4-chlorophenyl)-1-(2,4-dichlorophenyl)-1H-pyrazol-4-yl)methyl acetate], the IC50 stood at 22.4 nM. `Clc1ccc(-c2c(Cn3cncn3)c(-c3nnc(C4(c5ccc(Cl)cc5)CCC4)o3)nn2-c2ccc(Cl)cc2Cl)cc1` [Example 322, 2-(4-((1H-1,2,4-triazol-1-yl)methyl)-5-(4-chlorophenyl)-1-(2,4-dichlorophenyl)-1H-pyrazol-3-yl)-5-(1-(4-chlorophenyl)cyclobutyl)-1,3,4-oxadiazole]: the IC50 amounted to 3.41 nM. On the same count and under the same terms, the figure for `CCCn1nnnc1-c1nn(-c2ccc(Cl)cc2Cl)c(-c2ccc(Cl)cc2)c1C` [Example 565, 5-(5-(4-Chlorophenyl)-1-(2,4-dichlorophenyl)-4-methyl-1H-pyrazol-3-yl)-1-propyl-1H-tetrazole] is 68.9 nM; for `C=CCOC(C)(C)c1nnc(-c2nn(-c3ccc(Cl)cc3Cl)c(-c3ccc(Cl)cc3)c2C)s1` [Example 456, 2-(2-(allyloxy)propan-2-yl)-5-(5-(4-chlorophenyl)-1-(2,4-dichlorophenyl)-4-methyl-1H-pyrazol-3-yl)-1,3,4-thiadiazole] it is 61 nM. On the same count and under the same terms, under `Cc1c(-c2nnc(C3(c4ccc(Cl)cc4)CCC3)o2)nn(-c2ccc(Cl)cc2Cl)c1-c1ccc(Cl)cc1` [Example 110, 2-(5-(4-chlorophenyl)-1-(2,4-dichlorophenyl)-4-methyl-1H-pyrazol-3-yl)-5-(1-(4-chlorophenyl)cyclobutyl)-1,3,4-oxadiazole] stands 13 nM; under `Cc1ccc(C2(c3nnc(-c4nn(-c5ccc(Cl)cc5Cl)c(-c5ccc(Cl)cc5)c4C)o3)CC2)cc1` [Example 131, 2-(5-(4-chlorophenyl)-1-(2,4-dichlorophenyl)-4-methyl-1H-pyrazol-3-yl)-5-(1-p-tolylcyclopropyl)-1,3,4-oxadiazole], 7.26 nM; under `Cc1c(-c2nnc(C(C)(C)C3CCCC3)o2)nn(-c2ccc(Cl)cc2Cl)c1-c1ccc(Cl)cc1` [Example 63, 2-(5-(4-chlorophenyl)-1-(2,4-dichlorophenyl)-4-methyl-1H-pyrazol-3-yl)-5-(2-cyclopentylpropan-2-yl)-1,3,4-oxadiazole], 19.1 nM. Take `CCc1c(-c2nnc(C(CC)CC)s2)nn(-c2ccc(Cl)cc2Cl)c1-c1ccc(Br)cc1` [Example 454, 2-(5-(4-bromophenyl)-1-(2,4-dichlorophenyl)-4-ethyl-1H-pyrazol-3-yl)-5-(pentan-3-yl)-1,3,4-thiadiazole]: the 50% inhibitory concentration (IC50) was 23.1 nM. Same read-out and setting: under `CC(C)(C)c1nnc(-c2nn(-c3ccc(Cl)cc3Cl)c(-c3ccc(Br)cc3)c2CO)o1` [Example 200, (5-(4-bromophenyl)-3-(5-tert-butyl-1,3,4-oxadiazol-2-yl)-1-(2,4-dichlorophenyl)-1H-pyrazol-4-yl)methanol] stands 6.35 nM.
